Reference: ChEMBL document CHEMBL5331106, “Investigation into the Mechanism of Action of the Tuberculosis Drug Candidate SQ109 and Its Metabolites and Analogues in Mycobacteria” (J Med Chem, 2023)

Key:
[1] = biological target: T1, Undecaprenyl-diphosphatase (Escherichia coli (strain K12), UniProt P60932); experiment: Inhibition of UppP in Escherichia coli using FPP as substrate pretreated for 20 mins followed by FPP addition and measured after 60 mins by malachite green based assay
T1 sequence (P60932 whole entry): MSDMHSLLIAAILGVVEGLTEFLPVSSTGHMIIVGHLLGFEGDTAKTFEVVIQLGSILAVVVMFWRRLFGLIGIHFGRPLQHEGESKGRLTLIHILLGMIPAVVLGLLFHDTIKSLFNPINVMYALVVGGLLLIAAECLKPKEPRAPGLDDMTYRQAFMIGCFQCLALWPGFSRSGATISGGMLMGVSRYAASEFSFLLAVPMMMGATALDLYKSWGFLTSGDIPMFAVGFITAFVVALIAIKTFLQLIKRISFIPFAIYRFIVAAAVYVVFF

[2] = tested on: Mycobacterium tuberculosis; experiment: Antimycobacterial activity against Mycobacterium tuberculosis HN878 assessed as inhibition of mycobacterial growth incubated for 5 days; format: functional, organism-based; conditions: HN878, 120 h
[3] = tested on: Mycolicibacterium smegmatis; experiment: Antimycobacterial activity against Mycobacterium smegmatis assessed as inhibition of mycobacterial growth incubated for 48 hrs in presence of 50 uM undecaprenyl phosphate; format: functional, organism-based
[4] = tested on: Mycolicibacterium smegmatis; experiment: Antimycobacterial activity against Mycobacterium smegmatis assessed as inhibition of mycobacterial growth incubated for 48 hrs; format: functional, organism-based
Cell membrane = experiment: Uncoupling activity in Escherichia coli inverted membrane vesicles assessed as collapse of pH gradient by measuring increase in ACMA fluorescence intensity by fluorometric analysis; format: subcellular
[5] = tested on: Mycobacterium tuberculosis; experiment: Antimycobacterial activity against Mycobacterium tuberculosis HN878 assessed as inhibition of mycobacterial growth incubated for 5 days in presence of 50 uM undecaprenyl phosphate; format: functional, organism-based; conditions: HN878, 120 h
[6] = tested on: Mycolicibacterium smegmatis; experiment: Rescue fold, ratio of IC50 for antimycobacterial activity against Mycobacterium smegmatis in presence of 50 uM undecaprenyl phosphate to IC50 for antimycobacterial activity against Mycobacterium smegmatis; format: functional
[7] = tested on: Mycolicibacterium smegmatis; experiment: Antimycobacterial activity against Mycobacterium smegmatis assessed as inhibition of mycobacterial growth incubated for 48 hrs in presence of 50 uM menaquinone-4; format: functional, organism-based
[8] = tested on: Mycolicibacterium smegmatis; experiment: Rescue fold, ratio of IC50 for antimycobacterial activity against Mycobacterium smegmatis in presence of 100 uM menaquinone-4 to IC50 for antimycobacterial activity against Mycobacterium smegmatis; format: functional
[9] = tested on: Mycolicibacterium smegmatis; experiment: Rescue fold, ratio of IC50 for antimycobacterial activity against Mycobacterium smegmatis in presence of 100 uM menaquinone-7 to IC50 for antimycobacterial activity against Mycobacterium smegmatis; format: functional
[10] = tested on: Mycolicibacterium smegmatis; experiment: Antimycobacterial activity against Mycobacterium smegmatis assessed as inhibition of mycobacterial growth incubated for 48 hrs in presence of 50 uM Upp; format: functional, organism-based

| Compound | IC50 [1] [µM] | IC50 [2] [µM] | IC50 [3] [µM] | IC50 [4] [µM] | IC50 (Cell membrane) [µM] | IC50 [5] [µM] | Ratio IC50 [6] | IC50 [7] [µM] | Ratio IC50 [8] | Ratio IC50 [9] | IC50 [10] [µM] |
| --- | --- | --- | --- | --- | --- | --- | --- | --- | --- | --- | --- |
| CC(C)CCCC(C)CCNCCNC1C2CC3CC(C2)CC1C3 (stereo not drawn) | 15 | 1.7 | 9.1 | 9.3 | 5.2 | 16 | 1 |  |  |  |  |
| NC1C2CC3CC(C2)CC1C3 (stereo not drawn) |  | > 25 |  | > 500 | > 1000 |  |  |  |  |  |  |
| CC(C)=CCC/C(C)=C/CNCCNC1C2CC3CC1CC(O)(C3)C2 (stereo not drawn) |  | > 25 | 57 | 42 | 18 |  | 1.4 |  |  |  |  |
| CC(C)=CCC/C(C)=C/CNCCNC1C2CC3CC(C2)CC1(O)C3 (stereo not drawn) |  | 0.81 | 15 | 5 | 9.1 |  | 3 |  |  |  |  |
| CC(C)=CCC/C(C)=C/C(=O)O |  | > 25 |  | > 500 | > 1000 |  |  |  |  |  |  |
| CCCCc1ccc(-c2nc(C)c(/C(C)=N/NC(=N)N)s2)cc1 |  |  | 89 | 11 |  |  | 7.8 | 9.8 |  |  |  |
| O=C1C2CC3CC(C2)CC1C3 |  | > 25 |  | > 500 | > 1000 |  |  |  |  |  |  |
| CC(C)=CCC/C(C)=C/CNCCOC1C2CC3CC(C2)CC1C3 (stereo not drawn) | 21 | 0.07 | 11 | 1.3 | 1.2 | 0.54 | 9 |  |  |  |  |
| CC(C)=CCC/C(C)=C/COCCNC1C2CC3CC(C2)CC1C3 (stereo not drawn) | 91 | 1.3 | 9.8 | 7.3 | 55 | 2.8 | 1.3 |  |  |  |  |
| CC(C)=CCCC1(C)CC=NO1 (stereo not drawn) |  | > 25 |  | > 500 | > 1000 |  |  |  |  |  |  |
| CC(C)=CCC/C(C)=C/CCNCCNC1C2CC3CC(C2)CC1C3 (stereo not drawn) | 16 | 0.82 | 48 | 2.7 | 1.9 | 8 | 18 |  | 2 | 2 |  |
| CC(C)=CCC/C(C)=C/CNCCNC1[C@H]2C[C@@H]3C[C@H](C2)[C@@H](O)[C@H]1C3 (stereo partly drawn) |  | 4.2 | 24 | 11 | 12 |  | 2.2 |  |  |  |  |
| CC(C)=CCC/C(C)=C/C(C)(C)NCCNC1C2CC3CC(C2)CC1C3 (stereo not drawn) | 37 | 0.61 | 43 | 1.9 | 1.1 | 8.7 | 23 |  |  |  |  |
| CC(C)=CCC/C(C)=C/CN |  | > 25 |  | > 500 | 307 |  |  |  |  |  |  |
| c1ccc(CCNC2CCCc3c2[nH]c2ccc(C4CCCCC4)cc32)cc1 (stereo not drawn) |  |  | 56 | 14 |  |  |  |  |  |  | 14 |
| CC(C)=CCC/C(C)=C/CCNCCNC1C2CC3CC1CC(F)(C3)C2 (stereo not drawn) | 153 | 1.5 | 38 | 8 | 5.5 | 8.8 | 4.8 |  |  |  |  |
| C/C(=C\CNCCNC1C2CC3CC(C2)CC1C3)CCC(=O)C(C)C (stereo not drawn) |  | 14 | 63 | 26 | 15 |  | 2.4 |  |  |  |  |
| ON=C1C2CC3CC(C2)CC1C3 |  | > 25 |  | > 500 | > 1000 |  |  |  |  |  |  |
| CC(C)=CCC/C(C)=C/CNCCNC1C2CC3CC1CC(C2)C3O (stereo not drawn) |  | > 25 | 67 | 42 | 19 |  | 1.6 |  |  |  |  |
| CCCCCCCCCCCNCCNC1C2CC3CC(C2)CC1C3 (stereo not drawn) | 18 | 1.9 | 8.9 | 3.9 | 0.87 | 24 | 2.3 |  |  |  |  |
| NCCNC1C2CC3CC(C2)CC1C3 (stereo not drawn) |  | > 25 |  | > 500 | 130 |  |  |  |  |  |  |
| CC(C)=CCC/C(C)=C/CNCCN |  | > 25 |  | > 500 | 77 |  |  |  |  |  |  |
| CC(C)=CCC/C(C)=C/C=N\O |  | > 25 |  | > 500 | > 1000 |  |  |  |  |  |  |
| C/C(=C\CC/C(C)=C/CNCCNC1C2CC3CC(C2)CC1C3)CO (stereo not drawn) |  | > 16 | 24 | 20 | 17 |  | 1.2 |  |  |  |  |
| CC(C)=CCC/C(C)=C/C=O [CITRAL] |  | > 25 |  | > 500 | > 1000 |  |  |  |  |  |  |
